According to ChEMBL document CHEMBL4831498, “Discovery of a potent MLL1 and WDR5 protein-protein interaction inhibitor with in vivo antitumor activity” (Eur J Med Chem, 2021):
Values after ≈ are worked out from the molar mass of the structure shown.

Assay: Solubility of the compound at pH 7.4 by potentiometric titration method
Assay type: physicochemical
Conditions: buffer

Q: With `COC(=O)c1ccc(-c2ccc(N3CCN(C)CC3)c(NC(=O)c3cc(N)c(F)c(C)c3Cl)c2)cc1` as the compound, how does the solubility read?
A: 3.7 µM (≈ 1.89 µg/mL)

Q: Which solubility does the source give for `Cc1c(F)c(N)cc(C(=O)Nc2cc(-c3ccc(NC(=O)CCCN)cc3)ccc2N2CCN(C)CC2)c1Cl` here?
A: 199 µM (≈ 110 µg/mL)

Q: With `Cc1c(F)c(N)cc(C(=O)Nc2cc(-n3cc(C(=O)O)nn3)ccc2N2CCN(C)CC2)c1Cl` as the compound, how does the solubility read?
A: 349 µM (≈ 170 µg/mL)

Q: For `Cc1c(F)c(N)cc(C(=O)Nc2cc(-c3ccc(C(=O)O)cc3)ccc2N2CCN(C)CC2)c1Cl`, which solubility is on record?
A: 40.5 µM (≈ 20.1 µg/mL)

Q: For `Cc1c(F)c(N)cc(C(=O)Nc2cc(-c3ccc(C(=O)N4CCOCC4)cc3)ccc2N2CCN(C)CC2)c1Cl`, which solubility is on record?
A: 48.2 µM (≈ 27.3 µg/mL)

Q: For `Cc1c(F)c(N)cc(C(=O)Nc2cc(-c3ccc(NC(=O)C4CCN(C)CC4)cc3)ccc2N2CCN(C)CC2)c1Cl`, which solubility is on record?
A: 3.9 µM (≈ 2.31 µg/mL)

Q: For `Cc1c(F)c(N)cc(C(=O)Nc2cc(-n3cc(C(=O)NC4CCN(C)CC4)nn3)ccc2N2CCN(C)CC2)c1Cl`, which solubility is on record?
A: 343 µM (≈ 201 µg/mL)

Q: For `Cc1c(F)c(N)cc(C(=O)Nc2cc(-n3cc(C(=O)N4CCOCC4)nn3)ccc2N2CCN(C)CC2)c1Cl`, which solubility is on record?
A: 361 µM (≈ 201 µg/mL)

Q: For `Cc1c(F)c(N)cc(C(=O)Nc2cc(-c3ccc(NC(=O)C4CCOCC4)cc3)ccc2N2CCN(C)CC2)c1Cl`, which solubility is on record?
A: 126 µM (≈ 73.3 µg/mL)

Q: With `Cc1c(F)c(N)cc(C(=O)Nc2cc(-n3cc(C(=O)NC4CCOCC4)nn3)ccc2N2CCN(C)CC2)c1Cl` as the compound, how does the solubility read?
A: 95.6 µM (≈ 54.6 µg/mL)

Q: For `Cc1c(F)c(N)cc(C(=O)Nc2cc(-n3cc(C(=O)NCCCN4CCOCC4)nn3)ccc2N2CCN(C)CC2)c1Cl`, which solubility is on record?
A: 246 µM (≈ 151 µg/mL)

Q: For `COC(=O)c1cn(-c2ccc(N3CCN(C)CC3)c(NC(=O)c3cc(N)c(F)c(C)c3Cl)c2)nn1`, which solubility is on record?
A: 41.5 µM (≈ 20.8 µg/mL)
